Each structure is given as a SMILES string.

Assay [1] has as its target T1, COS-7/AMY3 (human calcitonin receptor (CTR) and RAMP3) (Homo sapiens, UniProt O60896+P30988).
T1 construct: expressed in transfected cells; host or cells: COS-7
Nature of the assay: Amylin Receptor cAMP Assay II. In kind it is cell-based. As to conditions: values marked **: Amylin Receptor cAMP Assay II; COS-7/AMY3 cells, cAMP dynamic 2 kit, 30 min; read-out: Amylin Receptor cAMP Stimulation Activity: EC50. The procedure, abridged: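 Agonist-induced cAMP was quantified by HTRF ratio at 665/615 nm and expressed as % of the window from vehicle to MAX control. Stimulation lasted 30 min at 37 °C in HBSS/20 mM HEPES/0.5 mM IBMX/0.1% casein, using stable human CTR+RAMP3 (AMY3) COS-7 cells at 2000 per well.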

For assay [2], the target named is T2, human calcitonin receptor (CTR) (Homo sapiens, UniProt P30988).
T2 construct: expressed in transfected cells; host or cells: COS-7 (COS7-human CTR Clone #2)
T2 sequence (P30988 25-474): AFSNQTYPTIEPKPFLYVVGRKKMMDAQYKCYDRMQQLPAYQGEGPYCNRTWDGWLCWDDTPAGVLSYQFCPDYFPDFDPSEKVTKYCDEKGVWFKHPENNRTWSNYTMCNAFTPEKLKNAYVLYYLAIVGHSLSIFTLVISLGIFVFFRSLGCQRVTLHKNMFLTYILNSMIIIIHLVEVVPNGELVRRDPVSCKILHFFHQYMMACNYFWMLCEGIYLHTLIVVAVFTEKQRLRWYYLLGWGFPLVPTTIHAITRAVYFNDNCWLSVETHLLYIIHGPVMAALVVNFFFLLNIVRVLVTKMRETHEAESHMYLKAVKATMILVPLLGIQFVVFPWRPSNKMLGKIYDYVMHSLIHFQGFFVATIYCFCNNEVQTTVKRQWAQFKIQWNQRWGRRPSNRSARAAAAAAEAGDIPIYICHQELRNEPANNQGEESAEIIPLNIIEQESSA
Nature of the assay: Calcitonin Receptor (CTR) cAMP Assay. In kind it is cell-based. As to conditions: COS7-human CTR Clone #2 stable cell line, cAMP dynamic 2 kit, 30 min; read-out: Calcitonin Receptor cAMP Stimulation Activity: EC50. The method in brief:
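cAMP accumulation was measured by HTRF cAMP dynamic 2 read at 665/615 nm, 1 h at room temperature, with results scaled between vehicle and positive control. Before detection, COS7-human CTR stable cells were stimulated 30 min at 37 °C with compound (4-fold dilutions) in IBMX-containing HBSS/HEPES/casein buffer.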

T1 sequence (O60896 24-148, one chain of several): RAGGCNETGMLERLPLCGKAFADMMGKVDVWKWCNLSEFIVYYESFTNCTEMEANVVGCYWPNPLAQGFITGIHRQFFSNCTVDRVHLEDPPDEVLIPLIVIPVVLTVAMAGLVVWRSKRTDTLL

As to `CC1(C)Oc2cc(-c3c4c(nc(CCc5ccc(F)cc5)c3-c3n[nH]c(=O)o3)[C@@H]3CCCN3C4=O)ccc2N(Cc2ccc(F)cn2)C1=O` [Compound 186, (S)-7-(2-(4-fluorophenethyl)-5-oxo-3-(5-oxo-4,5-dihydro-1,3,4-oxadiazol-2-yl)-7,8,9,9a-tetrahydro-5H-pyrido[2,3-a]pyrrolizin-4-yl)-4-((5-fluoropyridin-2-yl)methyl)-2,2-dimethyl-2H-benzo[b][1,4]oxazin-3(4H)-one], the concentration giving a half-maximal response (EC50) in assay [1] came to 37.2 nM; in assay [2], 0.682 nM.

As to `O=C1c2c(nc(CCc3ccc(F)cc3)c(-c3noc(=O)[nH]3)c2-c2cc3ccnc(N4CCCC4c4ccc(F)c(F)c4)c3s2)[C@@H]2CCCN12` (stereo partly drawn) [Compound 117], the EC50 in assay [1] was 113 nM; in assay [2], 53.5 nM.

As to `COc1cccc2c1CC[C@H]2Nc1nccc2cc(-c3c4c(nc(CCc5ccc(F)cc5)c3-c3noc(=O)[nH]3)[C@@H]3CCCN3C4=O)sc12` [Compound 104], the EC50 in assay [1] was 25.5 nM; in assay [2] it was 0.926 nM.

As for `CC(C)C1CS(=O)(=O)c2c1nc(CCc1ccc(F)cc1)c(-c1n[nH]c(=O)o1)c2-c1ccc2c(c1)oc(=O)n2Cc1ccc(C#N)cn1` (stereo not drawn) [Compound 163, 6-((6-(5-(4-fluorophenethyl)-3-isopropyl-1,1-dioxido-6-(5-oxo-4,5-dihydro-1,3,4-oxadiazol-2-yl)-2,3-dihydrothieno[3,2-b]pyridin-7-yl)-2-oxobenzo[d]oxazol-3(2H)-yl)methyl)nicotinonitrile], the EC50 was determined as 11.2 nM in assay [1] and 0.588 nM in assay [2].

Turning to `CC(c1ccc(C#N)c(F)c1)n1ccc2cc(-c3c4c(nc(CCC5CCOCC5)c3-c3cc(=O)[nH]o3)[C@@H]3CCCN3C4=O)ccc21` (stereo partly drawn) [Compound 204, 2-fluoro-4-(1-(5-((S)-5-oxo-3-(3-oxo-2,3-dihydroisoxazol-5-yl)-2-(2-(tetrahydro-2H-pyran-4-yl)ethyl)-7,8,9,9a-tetrahydro-5H-pyrido[2,3-a]pyrrolizin-4-yl)-1H-indol-1-yl)ethyl)benzonitrile], the EC50 in assay [1] was 266 nM; in assay [2] it was 5.06 nM.

As for `COc1cccc2c1CC[C@H]2Nc1nccc2cc(-c3c4c(nc(CCc5ccc(F)cc5)c3-c3n[nH]c(=O)o3)[C@H]3CCCN3C4=O)sc12` [Compound 229, 5-((R)-2-(4-fluorophenethyl)-4-(7-(((R)-4-methoxy-2,3-dihydro-1H-inden-1-yl)amino)thieno[2,3-c]pyridin-2-yl)-5-oxo-7,8,9,9a-tetrahydro-5H-pyrido[2,3-a]pyrrolizin-3-yl)-1,3,4-oxadiazol-2(3H)-one], the figures for the EC50 in assay [1] and in assay [2] were 48.4 nM and 13.4 nM, respectively.

As for `O=C1c2c(nc(CCc3ccc(F)cc3)c(-c3n[nH]c(=O)o3)c2-c2ccc3c(c2)CCCN3Cc2ccc(F)cc2F)[C@@H]2CCCN12` [Compound 220, (S)-5-(4-(1-(2,4-difluorobenzyl)-1,2,3,4-tetrahydroquinolin-6-yl)-2-(4-fluorophenethyl)-5-oxo-7,8,9,9a-tetrahydro-5H-pyrido[2,3-a]pyrrolizin-3-yl)-1,3,4-oxadiazol-2(3H)-one], the results for the EC50 in assay [1] and in assay [2] were 11400 nM and 20.5 nM, respectively.

As for `CC(c1ccc(C#N)cn1)N1C(=O)C(C)(C)Oc2cc(-c3c4c(nc(CCc5ccc(F)cc5)c3-c3n[nH]c(=O)o3)[C@@H]3CCCN3C4=O)ccc21` (stereo partly drawn) [Compound 252, 6-(1-(7-((S)-2-(4-fluorophenethyl)-5-oxo-3-(5-oxo-4,5-dihydro-1,3,4-oxadiazol-2-yl)-7,8,9,9a-tetrahydro-5H-pyrido[2,3-a]pyrrolizin-4-yl)-2,2-dimethyl-3-oxo-2H-benzo[b][1,4]oxazin-4(3H)-yl)ethyl)nicotinonitrile], the figures for the EC50 in assay [1] and in assay [2] were 248 nM and 7.9 nM, respectively.

On to `COc1cccc2c1CC(F)(F)[C@H]2Nc1nccc2cc(-c3c4c(nc(CCc5ccc(F)cc5)c3-c3n[nH]c(=O)o3)[C@@H]3CCCN3C4=O)sc12` [Compound 194, 5-((S)-4-(7-(((S)-2,2-difluoro-4-methoxy-2,3-dihydro-1H-inden-1-yl)amino)thieno[2,3-c]pyridin-2-yl)-2-(4-fluorophenethyl)-5-oxo-7,8,9,9a-tetrahydro-5H-pyrido[2,3-a]pyrrolizin-3-yl)-1,3,4-oxadiazol-2(3H)-one], for which the figures for the EC50 in assay [1] and in assay [2] were 1.96 nM and 0.229 nM, respectively.

For `COc1cccc2c1CC[C@H]2Nc1nccc2cc(-c3c4c(nc(CCc5ccc(Cl)cc5)c3-c3n[nH]c(=O)o3)[C@@H]3CCCN3C4=O)sc12` [Compound 242, 5-((S)-2-(4-chlorophenethyl)-4-(7-(((R)-4-methoxy-2,3-dihydro-1H-inden-1-yl)amino)thieno[2,3-c]pyridin-2-yl)-5-oxo-7,8,9,9a-tetrahydro-5H-pyrido[2,3-a]pyrrolizin-3-yl)-1,3,4-oxadiazol-2(3H)-one], the EC50 in assay [1] came out at 18.4 nM; in assay [2], 0.668 nM.

For `COc1cccc2c1CC[C@H]2Nc1nccc2cc(-c3c4c(nc(CCc5ccc(C6CC6)cc5)c3-c3noc(=O)[nH]3)[C@@H]3CCCN3C4=O)sc12` [Compound 127, 3-((S)-2-(4-cyclopropylphenethyl)-4-(7-(((R)-4-methoxy-2,3-dihydro-1H-inden-1-yl)amino)thieno[2,3-c]pyridin-2-yl)-5-oxo-7,8,9,9a-tetrahydro-5H-pyrido[2,3-a]pyrrolizin-3-yl)-1,2,4-oxadiazol-5(4H)-one], the figures for the EC50 in assay [1] and in assay [2] were 143 nM and 4.36 nM, respectively.

As to `COc1c(F)ccc2c1CC(F)(F)[C@@H]2Nc1nccc2cc(-c3c4c(nc(CCc5ccc(F)cc5)c3-c3n[nH]c(=O)o3)[C@@H]3CCCN3C4=O)sc12` [Compound 290, 5-((S)-2-(4-fluorophenethyl)-5-oxo-4-(7-(((R)-2,2,5-trifluoro-4-methoxy-2,3-dihydro-1H-inden-1-yl)amino)thieno[2,3-c]pyridin-2-yl)-7,8,9,9a-tetrahydro-5H-pyrido[2,3-a]pyrrolizin-3-yl)-1,3,4-oxadiazol-2(3H)-one], the results for the EC50 in assay [1] and in assay [2] were 1640 nM and 17.6 nM, respectively.

As for `O=C1c2c(nc(CCc3ccc(F)cc3)c(-c3n[nH]c(=O)o3)c2-c2ccc3c(Cc4ccc(F)cc4F)noc3c2)[C@@H]2CCCN12` [Compound 221, (S)-5-(4-(3-(2,4-difluorobenzyl)benzo[d]isoxazol-6-yl)-2-(4-fluorophenethyl)-5-oxo-7,8,9,9a-tetrahydro-5H-pyrido[2,3-a]pyrrolizin-3-yl)-1,3,4-oxadiazol-2(3H)-one], the EC50 is 865 nM in assay [1] and 15.5 nM in assay [2].

On to `COc1c(F)ccc2c1CC(F)(F)[C@H]2Nc1nccc2cc(-c3c4c(nc(CCc5ccc(F)cc5)c3-c3n[nH]c(=O)o3)[C@@H]3CCCN3C4=O)sc12` [Compound 282, 5-((S)-2-(4-fluorophenethyl)-5-oxo-4-(7-(((S)-2,2,5-trifluoro-4-methoxy-2,3-dihydro-1H-inden-1-yl)amino)thieno[2,3-c]pyridin-2-yl)-7,8,9,9a-tetrahydro-5H-pyrido[2,3-a]pyrrolizin-3-yl)-1,3,4-oxadiazol-2(3H)-one], for which the EC50 in assay [1] is 0.464 nM; in assay [2], 0.0464 nM.

Turning to `CN(Cc1ccc(F)c(F)c1)C(=O)c1ccc(-c2c3c(nc(CCc4ccc(F)cc4)c2-c2noc(=O)[nH]2)[C@@H]2CCCN2C3=O)s1` [Compound 115], the EC50 was 566 nM in assay [1] and 28.8 nM in assay [2].

In general, EC50 refers to the midpoint of the concentration-response curve.

(Values after US12486269B2 (Aconcagua Bio, Inc., priority 2024, dated 2025).)
